These results are taken from patent publication US10703748B2, “Diazanaphthalen-3-yl carboxamides and preparation and use thereof” (Samumed, LLC, priority 2017, dated 2020).

Test [1] deals with DYRK1A kinase (Homo sapiens, UniProt Q13627). Briefly: DYRK1A kinase activity (Ser/Thr 18 peptide Z-lyte FRET assay).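 Further: kinase activity read as coumarin/fluorescein emission ratio after development step, with unphosphorylated and phosphorylated peptide forms setting 0% and 100% controls, values from dose-response curves.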 It counts as biochemical. The following applies: recombinant DYRK1A, 30 μM ATP, one hour at room temperature.
The target in test [2] is GSK3β kinase (Homo sapiens, UniProt P49841). Briefly: GSK3β kinase activity (Ser/Thr 09 peptide Z-lyte FRET assay). As to conditions: recombinant kinase, 46 μM ATP, one hour at room temperature; read-out: EC50. Format: biochemical.
Sequence of GSK3β kinase (P49841 whole entry): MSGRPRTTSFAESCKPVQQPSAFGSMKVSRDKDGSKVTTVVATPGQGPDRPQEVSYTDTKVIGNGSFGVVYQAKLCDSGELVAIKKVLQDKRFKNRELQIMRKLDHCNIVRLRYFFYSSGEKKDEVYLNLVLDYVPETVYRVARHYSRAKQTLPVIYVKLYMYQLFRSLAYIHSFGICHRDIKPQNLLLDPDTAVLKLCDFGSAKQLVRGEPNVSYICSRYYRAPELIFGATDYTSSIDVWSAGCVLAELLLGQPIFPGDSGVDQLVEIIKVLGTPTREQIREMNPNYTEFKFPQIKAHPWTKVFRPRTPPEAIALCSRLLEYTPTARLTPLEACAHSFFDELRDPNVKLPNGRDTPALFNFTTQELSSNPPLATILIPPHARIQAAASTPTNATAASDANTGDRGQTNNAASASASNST
Method: Each compound is dissolved in DMSO as a 10 mM stock and used to prepare compound source plates. Serial dilution (1:3, 11-point dose-response curves from 10 μM to 0.0003 μM) and compound transfer was performed using the ECHO 550 (Labcyte, Sunnyvale, Calif.) into 1536-well black-walled round bottom plates (Corning).
This is a non-radioactive assay using fluorescence resonance energy transfer (FRET) between coumarin and fluorescein to detect kinase activity which is represented as ratio of coumarin emission/fluorescein emission.
The mixture is allowed to incubate with the representative compounds for one hour at room temperature. All reactions were performed in duplicate. Unphosphorylated (“0% Control”) and phosphorylated (“100% control”) forms of Ser/Thr 18 serve as control reactions.
After incubation, diluted Development Buffer is added to the reaction and allowed to further incubate for one hour at room temperature.
Dose-response curves are generated and inhibitory concentration (IC50) values are calculated using non-linear regression curve fit in the Dotmatics' Studies Software (Bishops Stortford, UK).
Test [3] relates to Tau phosphorylation at Ser396 (pSer396). Briefly: Tau phosphorylation at Ser396 (pSer396) in SH-SY5Y cells, ELISA / western blot.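 Further: decrease in pSer396 Tau measured in lysates of treated cells by colorimetric ELISA or chemiluminescent western blot, same pSer396 antibody for both.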 It counts as cell-based, human. As to conditions: Homo sapiens; SH-SY5Y cells, overnight (16-18 h); read-out: pSer396 Tau EC50.
Method: Two days before treatment, cells were seeded onto 96 well plates at 5×10^4 cells/well.
The above synthesized compounds were screened using the cell assay procedure to assess decrease Tau phosphorylation at Ser396 (pSer396) described below.
Cells were lysed with RIPA buffer complemented with phosphatase and protease inhibitors then lysates were spun down at 12,000 g for 10 min to remove any cellular debris.
For test [4], the system named is secreted cytokines TNFα, IL-6 and KC-GRO. Briefly: Secreted cytokines in Lipopolysaccharide-stimulated BV-2 cells (Table 9 does not say which cytokine). The following applies: Mus musculus, BV-2, 5 h; read-out: EC50. Format: cell-based, mouse.
Method: BV-2 cells (mouse microglial cells) were cultured in 1:1 DMEM medium supplemented with 10% FBS, and 1% penicillin/streptomycin.
BV-2 cells are plated at 35,000 cells/well in a volume of 100 μl for at least 4 hours before compounds are added. […] Compounds were added to cells overnight. […] Supernatant is removed and saved for further cytokine detection. The original plates with seeded cells were tested for cytotoxicity by measure of adenosine triphosphate (ATP) release by adding CellTiter-Glo® diluted 1:4 in distilled water (G7573, Promega) and transferring lysed cells to a completely black 96-well plate to be read with the Cytation3. Supernatant was then diluted 1:2 with a diluent from V-PLEX cytokine Kit and directly tested for the secreted cytokines TNFα, IL-6 and KC-GRO using electrochemiluminescence (Meso Scale Discovery). The standard curve for each cytokine was used to convert the electrochemiluminescent signal into pg of protein per mL.
The subject of test [5] is SW480 colon carcinoma cells. Briefly: Cell viability assay (CellTiter-Glo). The following applies: Homo sapiens; for EC50: SW480, 96 h; for inhibition at 10 µM: SW480, read-out: percent inhibition at 10 μM. Background: In ATP-based viability assays light output follows the ATP content of the culture.
For test [6], the system named is Wnt-responsive Sp5-Luc reporter in SW480 colon carcinoma cells. Briefly: Screening assay for Wnt activity (Sp5-Luc reporter gene assay). As to conditions: Homo sapiens; for EC50: SW480; for inhibition at 10 µM: SW480, read-out: percent inhibition at 10 μM.
Test [7] relates to IL-6. Briefly: IL-6 inhibition in LPS-stimulated human peripheral blood mononuclear cells (HTRF). As to conditions: Homo sapiens, PBMC; for EC50: 22 h; for inhibition at 10 µM: read-out: percentage in parentheses after EC50 >10. Background: In TR-FRET formats the signal depends on donor and acceptor labels being close together.
For test [8], the system named is α-smooth muscle actin (aSMA) positive LL29 cells. Briefly: Inhibition of the fibrotic process: αSMA staining in TGF-β1 treated LL29 fibroblasts from IPF patients. As to conditions: Homo sapiens, Fibroblast; for EC50: 96 h; for inhibition at 10 µM: read-out: percentage in parentheses after EC50 >10.

SMILES strings stand for the structures.

As a reminder, the EC50 is the concentration needed to bring the measured effect to its halfway point.

For `Cn1cc(-c2ccc3cnc(NC(=O)C4CCN(Cc5ncccn5)CC4)nc3c2)cn1` [Compound 1007, N-(7-(1-methyl-1H-pyrazol-4-yl)quinazolin-2-yl)-1-(pyrimidin-2-ylmethyl)piperidine-4-carboxamide], the EC50 was 106 nM in test [1]; 349 nM in test [2]; over 10000 nM in test [3]; 1800 nM in test [4]; over 10000 nM in test [5]; over 10000 nM in test [6]. In addition, the EC50 in test [7] and in test [8] was over 10000 nM in each case. Also, the inhibition at 10 µM was 17.9% in test [5], 14.6% in test [6], 2.4% in test [7] and 39.7% in test [8].
Take `Cn1cc(-c2cnc3cnc(NC(=O)C4CCNCC4)cc3c2)cn1` [Compound 2731, N-(3-(1-Methyl-1H-pyrazol-4-yl)-1,7-naphthyridin-6-yl)piperidine-4-carboxamide]: the EC50 was 21 nM in test [1]; 5510 nM in test [2]; over 10000 nM in test [3]; 1200 nM in test [4]; over 10000 nM in test [5]; over 10000 nM in test [6]. Moreover, the EC50 in test [7] is over 10000 nM; in test [8], 5320 nM. Besides, the inhibition at 10 µM in test [5] is 26.5%; in test [6], 30.9%; in test [7], 2.8%.
As for `Cn1cc(-c2cc3cc(NC(=O)CCc4ccccc4)ncc3cn2)cn1` [Compound 3821, N-(6-(1-Methyl-1H-pyrazol-4-yl)-2,7-naphthyridin-3-yl)-3-phenylpropanamide], the EC50 in test [1] is 7 nM; in test [2], 1 nM; in test [3], 29 nM; in test [4] it was 244 nM; in test [5] it was 231 nM; in test [6], 176 nM. The EC50 in test [7] was determined as 8410 nM; in test [8], 313 nM.
On to `Cn1cc(-c2cc3cc(NC(=O)C4CCN(CCC(F)(F)F)CC4)ncc3cn2)cn1` [Compound 3646, N-(6-(1-Methyl-1H-pyrazol-4-yl)-2,7-naphthyridin-3-yl)-1-(3,3,3-trifluoropropyl)piperidine-4-carboxamide], for which the EC50 in test [1] is 2 nM; in test [2], 4 nM; in test [3], 79 nM; in test [4], over 10000 nM; in test [5], 9580 nM; in test [6] it was 219 nM. Also, the EC50 in test [7] is 9040 nM; in test [8] it was over 10000 nM. Further, the inhibition at 10 µM in test [8] stood at 12.9%.
Regarding `Cn1cc(-c2ccc3cnc(NC(=O)C4CCN(Cc5ncco5)CC4)cc3n2)cn1` [Compound 95, N-(2-(1-Methyl-1H-pyrazol-4-yl)-1,6-naphthyridin-7-yl)-1-(oxazol-2-ylmethyl)piperidine-4-carboxamide], the EC50 in test [1] was 6 nM; in test [2], 84 nM; in test [3], 1700 nM; in test [4] it was 66 nM; in test [5], over 10000 nM; in test [6] it was 1540 nM. Also, the EC50 in test [7] is 9090 nM; in test [8] it was 444 nM. Moreover, the inhibition at 10 µM in test [5] was 38.6%.
For `CO[C@H]1CC[C@@H](C(=O)Nc2ncc3ccc(-c4nnc(C)s4)cc3n2)CC1` [Compound 1612, cis-4-Methoxy-N-(7-(5-methyl-1,3,4-thiadiazol-2-yl)quinazolin-2-yl)cyclohexane-1-carboxamide], the EC50 in test [1] is 21 nM; in test [2], 49 nM; in test [3], 1100 nM; in test [4] it was 2200 nM; in test [5] it was over 10000 nM; in test [6], over 10000 nM. Also, the EC50 in test [7] and in test [8] was over 10000 nM each time. For the same compound, the inhibition at 10 µM in test [5] was 23.8%; in test [6], 37.9%; in test [7] it was 6.3%; in test [8], 42%.
For `CC(C)CN1CCC(C(=O)Nc2cc3nc(-c4cnn(C)c4)ccc3cn2)CC1` [Compound 16, 1-Isobutyl-N-(2-(1-methyl-1H-pyrazol-4-yl)-1,6-naphthyridin-7-yl) piperidine-4-carboxamide], the EC50 in test [1] was 40 nM; in test [2] it was 277 nM; in test [3] it was 923 nM; in test [4] it was 111 nM; in test [5], over 10000 nM; in test [6], 1540 nM. In addition, the values for the EC50 in test [7] and in test [8] were over 10000 nM and 251 nM, respectively. Also, the inhibition at 10 µM stood at 45.1% in test [5] and 52.2% in test [7].
With `O=C(Nc1cc2cc(-c3cncc(NC4CCNCC4)n3)ncc2cn1)C1CCOCC1` [Compound 4504, N-(6-(6-(Piperidin-4-ylamino)pyrazin-2-yl)-2,7-naphthyridin-3-yl) tetrahydro-2H-pyran-4-carboxamide], the EC50 is 4 nM in test [1]; 77 nM in test [2]; 10000 nM in test [3]; 524 nM in test [4]; over 10000 nM in test [5]; 3640 nM in test [6]. In addition, the EC50 was over 10000 nM in test [7] and 384 nM in test [8]. Moreover, the inhibition at 10 µM came to 47.9% in test [5] and 7.3% in test [7].
For `Cn1cc(-c2ccc3cnc(NC(=O)C4CCN(Cc5ncccn5)CC4)cc3n2)cn1` [Compound 99, N-(2-(1-Methyl-1H-pyrazol-4-yl)-1,6-naphthyridin-7-yl)-1-(pyrimidin-2-ylmethyl)piperidine-4-carboxamide], the EC50 in test [1] was 9 nM; in test [2], 180 nM; in test [3], 967 nM; in test [4], 177 nM; in test [5], over 10000 nM; in test [6] it was 1310 nM. Also, the EC50 in test [7] was 8600 nM; in test [8] it was 4060 nM. In test [5], the inhibition at 10 µM was found to be 37%.
Turning to `Cn1cc(-c2ccc3cnc(NC(=O)C4CCN(S(C)(=O)=O)CC4)cc3n2)cn1` [Compound 71, N-(2-(1-Methyl-1H-pyrazol-4-yl)-1,6-naphthyridin-7-yl)-1-(methylsulfonyl)piperidine-4-carboxamide], the EC50 in test [1] is 3 nM; in test [2] it was 18 nM; in test [3], 426 nM; in test [4] it was 93 nM; in test [5], over 10000 nM; in test [6] it was 559 nM. In addition, the EC50 turned out to be 5490 nM in test [7] and 420 nM in test [8]. In test [5], the inhibition at 10 µM was 40.7%.
Turning to `Cc1cn2c(n1)CN(C(=O)Nc1ncc3ccc(-c4cnc(C)o4)cc3n1)CC2` [Compound 1491, 2-Methyl-N-(7-(2-methyloxazol-5-yl)quinazolin-2-yl)-5,6-dihydroimidazo [1,2-a]pyrazine-7(8H)-carboxamide], the EC50 was 39 nM in test [1]; 166 nM in test [2]; 3700 nM in test [3]; 3900 nM in test [4]; 8860 nM in test [5]; over 10000 nM in test [6]. Further, the concentration giving a half-maximal response (EC50) in test [7] and in test [8] was over 10000 nM each time. For the same compound, the inhibition at 10 µM in test [6] worked out at 25.2%; in test [7], 2.6%; in test [8], 6.1%.
